The source of these data is patent US8580579B2, “Hydrophilic and lipophilic rhodamines for labelling and imaging” (Max-Planck-Gesellschaft zur Foerderung der Wissenschaften …, priority 2009, dated 2013).

The conditions of data set [1]: cited from earlier work.
For data set [2] the following is noted: cited from earlier work; for Φfl: no solvent given in the cell.
Data set [3] can be described thus: Solubility and polarity of the dyes.
Data set [4] in a line: UV-visible absorption and fluorescence spectra of the dyes of the invention. It is filed as physicochemical. To be noted: solvent MeOH. The procedure: UV-visible absorption spectra were recorded on a Varian Cary 4000 UV-Vis spectrophotometer, and fluorescence spectra on a Varian Cary Eclipse fluorescence spectrophotometer. Reactions were carried out upon magnetic stirring in Schlenk flasks equipped with septa or reflux condensers with bubble-counters under argon using a standard manifold with vacuum and argon lines. All NMR spectra are referenced to tetramethylsilane as an internal standard (δ=0 ppm) using the signals of the residual protons of CHCl3 (7.26 ppm) in CDCl3, CHD2OD (3.31 ppm) in CD3OD, HOD (4.75 ppm) in D2O, [D5]acetone (2.04 ppm) in [D6]acetone or [D5]DMSO (2.50 ppm) in [D6]DMSO. Multiplicities of signals are described as follows: s=singlet, br. s=broad singlet, d=doublet, t=triplet, q=quartet, quint=quintet, m=multiplet, mc=centrosymmetrical multiplet. Coupling constants (J) are given in Hz. Multiplicities in the ^13C NMR spectra were determined by APT (Attached Proton Test) measurements. Low resolution mass spectra (electro spray ionization, ESI) were obtained with LCQ and ESI-TOF mass-spectrometers (MICROTOF (focus), Fa. Bruker). The MICROTOF spectrometer equipped with ESI ion source Apollo and direct injector with LC autosampler Agilent RR 1200 was used for obtaining high resolution mass spectra (ESI-HRMS). ESI-HRMS were obtained also on APEX IV spectrometer (Bruker). HPLC system (Knauer): Smartline pump 1000 (2×), UV detector 2500, column thermostat 4000 (25° C.), mixing chamber, injection valve with 20 and 100 μL loop for the analytical and preparative columns, respectively; 6-port-3-channel switching valve; analytical column: Eurospher-100 C18, 5 μm, 250×4 mm, 1.1 mL/min; preparative column: Eurospher-100-5 C18, 5 μm, 250×8 mm, 3.7 mL/min; solvent A: water+0.1% v/v trifluoroacetic acid (TFA); solvent B: MeCN+0.1% v/v TFA; detection at 636 nm (if not stated otherwise). Normal phase analytical TLC was performed on MERCK ready-to-use plates with silica gel 60 (F254) and reversed phase TLC—on RP-18W/UV254 precoated TLC plates (Macherey-Nagel). Preparative TLC was performed on MERCK HPTLC silica gel 60 plates (10×10 cm, layer thickness 0.2 mm). Column chromatography: MERCK silica gel, grade 60, 0.04-0.063 mm or Polygoprep 60-50 C18 (Macherey-Nagel).

Molecules are shown by their SMILES. “Also recorded” adds a separate entry of the source. Read-outs that look alike come from different tables or passages of the source.

On to `CC(C)(C)c1cc(C=CC=C2N(CCCCCC(=O)O)c3ccc(S(=O)(=O)[O-])cc3C2(C)C)c2cc3c4c(c2[o+]1)CCCN4CCC3` [DY-635], for which, in data set [1], the “Solubility (solvents)” value is reported as “MeOH, EtOH,; also recorded: DMF, DMSO”. The τfl in data set [2] (H2O) was 0.48 ns. Besides, in data set [2] (solvent EtOH), the “ε · 10^−5” value was 2.0 M^−1 cm^−1, the “λmax (abs.)” value is on record as 647 nm and the “λmax (fl.)” value is 671 nm. In addition, in data set [2] (solvent H2O), the “λmax (abs.)” value is on record as 635^1 nm and the “λmax (fl.)” value is 669^1 nm.

`CC[N+](CC)=c1ccc2c(/C=C/C=C3/N(CCCS(=O)(=O)[O-])c4ccc(S(=O)(=O)[O-])cc4C3(C)CCCC(=O)O)cc(C(C)(C)C)oc-2c1.[Na+]` (stereo not drawn) [DY-631]: the “Solubility (solvents)” value in data set [1] is recorded as “H2O, MeOH,; also recorded: DMF, DMSO”. The “ε · 10^−5” value in data set [2] (solvent EtOH) is recorded as 2.0 M^−1 cm^−1.

With `CC(C)(C)c1cc(C=CC=C2N(CCCC(=O)O)c3ccc(S(=O)(=O)[O-])cc3C2(C)CCCS(=O)(=O)[O-])c2ccc(=[N+](CCCS(=O)(=O)[O-])CCCS(=O)(=O)[O-])cc-2o1.[Na+].[Na+].[Na+]` (stereo not drawn) [DY-634], in data set [1], the “Solubility (solvents)” value is given as “H2O, MeOH,; also recorded: DMF, DMSO”. In data set [2] (solvent EtOH), the “ε · 10^−5” value was 2.0 M^−1 cm^−1.

Consider `COC(=O)c1c(F)c(F)c(F)c(F)c1C1=c2cc3c4c(c2Oc2c1cc1c5c2CCCN5C(C)(C)C=C1C)CCC[N+]=4C(C)(C)C=C3` [Compound 7], for which, in data set [3], the “Solubility (solvents)” value is “CHCl3, THF” and the polarity entry is listed as “non-polar”. Moreover, in data set [4], the “λmax (abs.)” value worked out at 632 nm and the “λmax (fl.)” value was 655.5 nm.

In the case of `CCN(CC)c1ccc2c(C=CC=C3N(CCCCCC(=O)O)c4ccc(S(=O)(=O)[O-])cc4C3(C)C)cc(C(C)(C)C)[o+]c2c1` [DY-630], the “Solubility (solvents)” value in data set [1] is “MeOH, EtOH,; also recorded: DMF, DMSO”. In addition, in data set [2] (H2O), the τfl is given as 0.21 ns. Further, the Φfl result in data set [2] is reported as “Varies^6”. For the same compound, in data set [2] (solvent EtOH), the “ε · 10^−5” value was 2.0 M^−1 cm^−1, the “λmax (abs.)” value was 636 nm and the “λmax (fl.)” value is given as 657 nm. Also, in data set [2] (solvent H2O), the “λmax (abs.)” value is on record as 627^1 nm and the “λmax (fl.)” value is listed as 651^1 nm.

As to `CCN(CCCS(=O)(=O)[O-])c1ccc2nc3ccc(=[N+](C)CCC(=O)O)cc-3oc2c1` [Evoblue 30], in data set [1], the “Solubility (solvents)” value is given as “H2O, MeOH,; also recorded: DMF, DMSO”. In addition, the τfl in data set [2] (H2O) was 0.64 (H2O)^1 ns. In addition, in data set [2] (solvent EtOH), the “ε · 10^−5” value is on record as 1.0 M^−1 cm^−1, the “λmax (abs.)” value is reported as 647 nm and the “λmax (fl.)” value was 664 nm. For the same compound, in data set [2] (solvent H2O), the “λmax (abs.)” value is 650^1 nm and the “λmax (fl.)” value is given as 667^1 nm.

For the compound `CC(C)(C)C1=CC(=CC=CC2=[N+](CCCS(=O)(=O)[O-])c3ccc(S(=O)(=O)[O-])cc3C2(C)CCCC(=O)O)c2cc3c4c(c2O1)CCCN4CCC3.[Na+]` (stereo not drawn) [DY-636], in data set [1], the “Solubility (solvents)” value is “H2O, EtOH,; also recorded: DMF, DMSO”. For the same compound, in data set [2] (solvent EtOH), the “ε · 10^−5” value is given as 2.0 M^−1 cm^−1, the “λmax (abs.)” value is reported as 645 nm and the “λmax (fl.)” value is listed as 671 nm.

`O=C(O)CCCCCNC(=O)COc1ccc(/C=C/C2=[N+]3C(=Cc4ccc(-c5cccs5)n4[B-]3(F)F)C=C2)cc1` [BODIPY ® 630/650]: the “Solubility (solvents)” value in data set [1] is listed as “DMSO, MeCN”. For the same compound, the τfl in data set [2] (EtOH) is recorded as 4.4 (EtOH)^1 ns. For the same compound, in data set [2] (H2O), the τfl is 3.9 (H2O) ns. Moreover, in data set [2], the Φfl result is ““good””. Besides, in data set [2] (solvent MeOH), the “ε · 10^−5” value is 1.01 M^−1 cm^−1, the “λmax (abs.)” value is on record as 625 nm and the “λmax (fl.)” value is given as 640 nm.

For `CCN1c2cc3[o+]c(C(C)(C)C)cc(C=CC=C4N(CCCCCC(=O)O)c5ccc(S(=O)(=O)[O-])cc5C4(C)C)c3cc2C(C)=CC1(C)C` [DY-650], in data set [1], the “Solubility (solvents)” value is on record as “MeOH, EtOH,; also recorded: DMF, DMSO”. Further, in data set [2] (H2O), the τfl is 0.64 (H2O)^1 ns. Further, in data set [2] (solvent EtOH), the “ε · 10^−5” value is on record as 2.2 M^−1 cm^−1, the “λmax (abs.)” value is reported as 653 nm and the “λmax (fl.)” value is given as 674 nm. For the same compound, in data set [2] (solvent H2O), the “λmax (abs.)” value is 646^1 nm and the “λmax (fl.)” value is listed as 670 nm.
